# Data published in patent US10577363B2, “Substituted piperidine compounds” (EPIZYME, INC., priority 2014, dated 2020).
# Experiments:
# SMYD3 [1] = target: T1, SMYD3 (Homo sapiens (Human), UniProt Q9H7B4); assay: SMYD3 cell assay (Trimethyl-MEKK2 In-Cell Western in 293T/17 cells); assay type: cell-based
# Source text: Trimethyl-MEKK2-in-Cell Western Assay
# MEM/Glutamax medium, Optimem Reduced Serum medium, penicillin-streptomycin, 0.05% trypsin and 1×D-PBS were purchased from Life Technologies, Grand Island, N.Y., USA. PBS-10× was purchased from Ambion, Life Technologies, Grand Island, N.Y., USA. PBS with Tween 20 (PBST (10×)) was purchased from KPL, Gaithersburg, Md., USA. Tet System FBS-approved FBS US Source was purchased from Clontech, Mountain View, Calif., USA. Odyssey blocking buffer, 800CW goat anti-rabbit IgG (H+L) antibody, 680CW Goat anti-mouse IgG (H+L) and Licor Odyssey infrared scanner were purchased from Licor Biosciences, Lincoln, Nebr., USA. Tri-methyl-Lysine [A260]-MEKK2 antibody, MEKK2 and SMYD3 plasmids were made at Epizyme. Anti-flag monoclonal mouse antibody was purchased from Sigma, St. Louis, Mo., USA. Methanol was purchased from VWR, Franklin, Mass., USA. 10% Tween 20 was purchased from KPL, Inc., Gaithersburg, Md., USA. Fugene was purchased from Promega, Madison, Wis., USA. The Biotek ELx405 was purchased from BioTek, Winooski, Vt., USA. The multidrop combi was purchased from Thermo Scientific, Waltham, Mass., USA.
# Cell Treatment, in Cell Western (ICW) for Detection of Trimethyl-Lysine-MEKK2 and MEKK2.
# Plasmids were prepared for delivery to cells by first mixing 1350 μL Opti-MEM with Fugene (81 μL) in a sterile Eppendorf and incubated for five minutes at room temperature (RT). […] Entire volume of Opti-MEM/Fugene mixture was then added to a microfuge tube containing DNA plasmid, mixed and then incubated×15 minutes at RT. […] Medium was then removed, and cells were washed once with PBS in the flask. Trypsin 0.05% (3 mL) was added and cells incubated for three minutes. Room temperature MEM+10% Tet system FBS was added and cells were mixed gently, and counted using the Vi-cell. Cells were seeded at 100,000 cells/mL in 50 μL MEM/10% Tet FBS/Pen/Strep to a 384 well black/clear poly-D-lysine coated plate containing test agent diluted in DMSO. The final top concentration of test compound was 40 μM. […] Plates were incubated×30 minutes at RT in low-airflow area, followed by incubation at 37° C. under 5% CO2 for 24 hours. Medium was aspirated from all wells of assay plates prior to fixation and permeabilization with ice cold (−20° C.) methanol (90 μL/well) for ten minutes. Plates were rinsed with PBS three times on BioTek ELx405. PBS was removed with a final aspiration, and Odyssey blocking buffer (50 μL/well) was added to each well and incubated for one hour at RT. Primary antibody solution was prepared (anti-trimethyl-MEKK2 at 1:600 dilution plus mouse anti-flag antibody at 1:10,000 dilution in diluent (Odyssey Blocking buffer+0.1% Tween 20)) and 20 μL per well was dispensed using the Multidrop Combi. Assay plates were then sealed with foil, and incubated overnight at 4° C. Plates were washed five times with PBS-Tween (1×) on Biotek ELx405 and blotted on paper towel to remove excess reagent.
# First, the ratio for each well was determined by:
# Each plate included fourteen control wells of DMSO only treatment (Minimum Inhibition) as well as fourteen control wells for maximum inhibition (Background). The average of the ratio values for each control type was calculated and used to determine the percent inhibition for each test well in the plate. Reference compound was serially diluted two-fold in DMSO for a total of nine test concentrations, beginning at 40 μM.
# Percent inhibition was calculated (below).
# Non-linear regression curves were generated to calculate the IC50 and dose-response relationship using triplicate wells per concentration of compound.
# SMYD3 [2] = target: T1, SMYD3; assay: SMYD3 biochemical assay (SPA, 3H-SAM methylation of MEKK2 protein substrate); conditions: read-out: SMYD3 Biochem IC50 (μM)*
# Outline: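 SPA methyltransferase format: tag-cleaved human SMYD3, insect-cell GST-MEKK2 protein substrate, 3H-SAM donor, 30 min RT enzyme–compound preincubation, 100 uM cold SAM quench.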
# [3] = read-out: SMYD3 Cell IC50 (μM)*
# T1 sequence (Q9H7B4 whole entry): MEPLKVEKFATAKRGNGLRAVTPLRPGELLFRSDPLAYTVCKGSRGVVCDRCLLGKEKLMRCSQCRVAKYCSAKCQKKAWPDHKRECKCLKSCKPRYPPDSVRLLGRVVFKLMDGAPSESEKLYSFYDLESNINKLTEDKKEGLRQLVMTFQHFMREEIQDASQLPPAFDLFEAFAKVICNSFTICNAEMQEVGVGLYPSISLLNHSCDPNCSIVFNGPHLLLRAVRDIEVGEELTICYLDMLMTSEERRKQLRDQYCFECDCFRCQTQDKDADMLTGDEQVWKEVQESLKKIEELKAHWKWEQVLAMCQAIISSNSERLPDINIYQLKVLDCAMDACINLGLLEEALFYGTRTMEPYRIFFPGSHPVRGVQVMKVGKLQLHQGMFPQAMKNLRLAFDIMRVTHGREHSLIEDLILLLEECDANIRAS
SMILES,IC50 (SMYD3 [2]) [µM],IC50 (SMYD3 [1]; [3]) [µM],IC50 (SMYD3 [1]) [µM]
"CC1CN(S(=O)(=O)CCCN)CCC1NC(=O)c1cc(C2CC2)on1 (stereo not drawn) [compound 46, N-(1-((3-aminopropyl)sulfonyl)-3-methylpiperidin-4-yl)-5-cyclopropylisoxazole-3-carboxamide]",0.119,,1.02
"NC[C@@H](Cc1ccc(O)c(Cl)c1)C(=O)N1CCC(NC(=O)c2cc(C3CC3)on2)CC1 [compound 63, (R)-N-(1-(3-amino-2-(3-chloro-4-hydroxybenzyl)propanoyl)piperidin-4-yl)-5-cyclopropylisoxazole-3-carboxamide]",0.139,1.44,
"C[C@@H]1CN(S(=O)(=O)CCN)CCC1NC(=O)c1cc(C2CC2)on1 (stereo partly drawn) [compound 65, N-((3R)-1-((2-aminoethyl)sulfonyl)-3-methylpiperidin-4-yl)-5-cyclopropylisoxazole-3-carboxamide]",0.205,1.05,
"C[C@@H]1CC(NC(=O)c2cc(C3CC3)on2)CCN1S(=O)(=O)CCN (stereo partly drawn) [compound 77, N-((2R)-1-((2-aminoethyl)sulfonyl)-2-methylpiperidin-4-yl)-5-cyclopropylisoxazole-3-carboxamide]",0.633,2.91,
"C[C@H]1CC(NC(=O)c2cc(C3CC3)on2)CCN1S(=O)(=O)CCN (stereo partly drawn) [compound 78, N-((2S)-1-((2-aminoethyl)sulfonyl)-2-methylpiperidin-4-yl)-5-cyclopropylisoxazole-3-carboxamide]",0.155,0.792,
"N[C@H]1CC[C@H](C(=O)N2[C@@H]3CC[C@H]2C[C@@H](NC(=O)c2cc(C4CC4)on2)C3)CC1 [compound 102, N-((1R,3R,5S)-8-((1r,4R)-4-aminocyclohexane-1-carbonyl)-8-azabicyclo[3.2.1]octan-3-yl)-5-cyclopropylisoxazole-3-carboxamide]",0.106,1.7,
C[C@H]1C[C@@H](NC(=O)c2cc(C3CC3)on2)CCN1S(=O)(=O)CCCN [compound 187],0.00409,0.831,
"C[C@@H]1C[C@H](NC(=O)c2cc(C3CC3)on2)CCN1S(=O)(=O)CCCN [compound 189, N-((2R,4R)-1-((3-aminopropyl)sulfonyl)-2-methylpiperidin-4-yl)-5-cyclopropylisoxazole-3-carboxamide]",0.0559,1.24,
"C[C@@H]1CC(NC(=O)c2cc(C3CC3)on2)CCN1C(=O)C12C3C4C1C1C2C3C41N (stereo partly drawn) [compound 202, N-((2R)-1-(4-aminocubane-1-carbonyl)-2-methylpiperidin-4-yl)-5-cyclopropylisoxazole-3-carboxamide]",0.142,1.31,
"NCCCS(=O)(=O)N1CCC(NC(=O)c2cc(C3CC3)on2)CC1 [compound 210, N-(1-((3-aminopropyl)sulfonyl)piperidin-4-yl)-5-cyclopropylisoxazole-3-carboxamide]",0.321,2.9,
"CC1(NC(=O)c2cc(C3CC3)on2)CCN(S(=O)(=O)CCCN)CC1 [compound 218, N-(1-((3-aminopropyl)sulfonyl)-4-methylpiperidin-4-yl)-5-cyclopropylisoxazole-3-carboxamide]",0.23,1.42,

# More lines, main results first:
IC50 (SMYD3 [2]) [µM],IC50 (SMYD3 [1]; [3]) [µM],SMILES,IC50 (SMYD3 [1]) [µM]
0.172,3.18,"C[C@H]1C[C@H](NC(=O)c2cc(C3CC3)on2)CCN1C(=O)CC1CCNCC1 [compound 56, 5-cyclopropyl-N-((2S,4R)-2-methyl-1-(2-(piperidin-4-yl)acetyl)piperidin-4-yl)isoxazole-3-carboxamide]",
0.0716,0.947,"C[C@@H]1C[C@H](NC(=O)c2cc(C3CC3)on2)CCN1C(=O)[C@H]1CC[C@H](N)CC1 [compound 57, N-((2R,4R)-1-((1r,4R)-4-aminocyclohexane-1-carbonyl)-2-methylpiperidin-4-yl)-5-cyclopropylisoxazole-3-carboxamide]",
0.59,3.72,"C[C@H]1CN(S(=O)(=O)CCN)CCC1NC(=O)c1cc(C2CC2)on1 (stereo partly drawn) [compound 66, N-((3S)-1-((2-aminoethyl)sulfonyl)-3-methylpiperidin-4-yl)-5-cyclopropylisoxazole-3-carboxamide]",
0.156,2.5,"N[C@H]1CC[C@H](C(=O)N2CC3CCC2CC3NC(=O)c2cc(C3CC3)on2)CC1 (stereo partly drawn) [compound 88, N-(2-((1r,4r)-4-aminocyclohexane-1-carbonyl)-2-azabicyclo[2.2.2]octan-5-yl)-5-cyclopropylisoxazole-3-carboxamide]",
0.23,3.05,"CC(C)C1CC(NC(=O)c2cc(C3CC3)on2)CCN1C(=O)[C@H]1CC[C@H](N)CC1 (stereo partly drawn) [compound 99, N-(1-((1r,4r)-4-aminocyclohexane-1-carbonyl)-2-isopropylpiperidin-4-yl)-5-cyclopropylisoxazole-3-carboxamide]",
0.0968,1.93,"O=C(NC1CCN(C(=O)CC2CCNCC2)C(Cc2ccccc2)C1)c1cc(C2CC2)on1 (stereo not drawn) [compound 109, N-(2-benzyl-1-(2-(piperidin-4-yl)acetyl)piperidin-4-yl)-5-cyclopropylisoxazole-3-carboxamide]",
0.0994,0.893,"CC[C@@H]1CC(NC(=O)c2cc(C3CC3)on2)CCN1C(=O)[C@H]1CC[C@H](N)CC1 (stereo partly drawn) [compound 110, N-((2R)-1-((1r,4R)-4-aminocyclohexane-1-carbonyl)-2-ethylpiperidin-4-yl)-5-cyclopropylisoxazole-3-carboxamide]",
0.208,1.35,"C[C@@H]1CC(NC(=O)c2cc(C3CC3)on2)CCN1C(=O)[C@H]1CC[C@H](N)CO1 (stereo partly drawn) [compound 118, N-((2R)-1-((2R,5S)-5-aminotetrahydro-2H-pyran-2-carbonyl)-2-methylpiperidin-4-yl)-5-cyclopropylisoxazole-3-carboxamide]",
0.274,2.24,"CN[C@H]1CC[C@H](C(=O)N2CCC(NC(=O)c3cc(C4CC4)on3)C[C@H]2C)CC1 (stereo partly drawn) [compound 124, 5-cyclopropyl-N-((2R)-2-methyl-1-((1r,4R)-4-(methylamino)cyclohexane-1-carbonyl)piperidin-4-yl)isoxazole-3-carboxamide]",
0.282,1.81,"C[C@@H]1CN(C(=O)[C@H]2CC[C@H](N)CC2)CC[C@@H]1NC(=O)c1cc(C2CC2)on1 [compound 148, N-((3R,4S)-1-((1r,4R)-4-aminocyclohexane-1-carbonyl)-3-methylpiperidin-4-yl)-5-cyclopropylisoxazole-3-carboxamide]",
0.291,3.22,"C[C@@H]1CN(C(=O)CC2CCNCC2)CC[C@@H]1NC(=O)c1cc(C2CC2)on1 [compound 149, 5-cyclopropyl-N-((3R,4S)-3-methyl-1-(2-(piperidin-4-yl)acetyl)piperidin-4-yl)isoxazole-3-carboxamide]",
0.245,1.76,"NC1CCC(C(=O)N2CCC(NC(=O)c3cc(C4CC4)on3)C3(CC3)C2)CC1 (stereo not drawn) [compound 156, N-(5-((1r,4r)-4-aminocyclohexane-1-carbonyl)-5-azaspiro[2.5]octan-8-yl)-5-cyclopropylisoxazole-3-carboxamide]",
0.274,0.983,"C[C@@H]1CC(NC(=O)c2cc(C3CC3)on2)CCN1C(=O)C1CC2(CC(N)C2)C1 (stereo partly drawn) [compound 175, N-((2R)-1-(6-aminospiro[3.3]heptane-2-carbonyl)-2-methylpiperidin-4-yl)-5-cyclopropylisoxazole-3-carboxamide]",
